Assay results reported in patent US9133142B2, “Salts or co-crystals of 3-(3-dimethylamino-1-ethyl-2-methyl-propyl)-phenol” (Gruenenthal GmbH, priority 2010, dated 2015).
Counter-ions that a name gives are not always drawn.

Tests used:
[1] = Thermogravimetric analysis (TGA) of salts or cocrystals; assay type: physicochemical; conditions: for TGA no weight loss up to: nitrogen flow, heating rate of 10° C./min
Experimental: Thermogravimetric investigations were performed with a Mettler-Toledo TGA/SDTA851.
Unless otherwise specified, the samples were weighed in a aluminium crucible and measured in nitrogen flow. Generally TGA investigations were performed in a temperature range of 25 to about 200° C. or resp. 350° C. with a heating rate of 10° C./min.

[2] = target: recombinantly produced μ-opioid receptor (Homo sapiens, UniProt P35372); conditions: relative to morphine; cited from earlier work
Chain of recombinantly produced μ-opioid receptor (P35372 whole entry): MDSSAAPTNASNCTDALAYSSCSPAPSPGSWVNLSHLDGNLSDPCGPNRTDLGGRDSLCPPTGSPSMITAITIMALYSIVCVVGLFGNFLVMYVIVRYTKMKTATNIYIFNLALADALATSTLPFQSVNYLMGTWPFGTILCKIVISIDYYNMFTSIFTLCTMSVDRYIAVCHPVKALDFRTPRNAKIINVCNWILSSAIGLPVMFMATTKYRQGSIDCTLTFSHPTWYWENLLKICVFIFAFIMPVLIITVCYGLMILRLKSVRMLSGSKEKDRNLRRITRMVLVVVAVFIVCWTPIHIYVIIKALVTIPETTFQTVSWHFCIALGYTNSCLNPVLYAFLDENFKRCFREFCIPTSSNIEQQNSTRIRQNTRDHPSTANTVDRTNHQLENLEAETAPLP

[3] = clinical studies; cited from earlier work
[4] = cited from earlier work

## CC[C@@H](c1cccc(O)c1)[C@@H](C)CN(C)C.O=C(O)c1cccnc1 [Example b2-1b, Salt or Cocrystal of Tapentadol and Nicotinic Acid]
[1]; range: 27 to 171° C.
  weight loss (TGA): −5.9%

## CCC(c1cccc(O)c1)C(C)CN(C)C.O=C(O)CC(=O)O (centres unmarked) [Example E-1, Salt or Cocrystal of Malonic Acid and Tapentadol]
[1]
  TGA no weight loss up to: to 115 °C

## CC[C@@H](c1cccc(O)c1)[C@@H](C)CN(C)C [tapentadol, (1R,2R)-3-(3-dimethylamino-1-ethyl-2-methyl-propyl)-phenol]
[2]
  affinity to the recombinantly produced μ-opioid receptor, times less than that of morphine: 18 times
[3]
  pain-alleviating action relative to morphine: two to three times less

## CC[C@@H](c1cccc(O)c1)[C@@H](C)CN(C)C [Example F-1, Salt or Cocrystal of Hydrobromic Acid and Tapentadol]
[1]
  TGA no weight loss up to: to 195 °C

## CC[C@@H](c1cccc(O)c1)[C@@H](C)CN(C)C [hydrogen chloride salt of 3-(3-dimethylamino-1-ethyl-2-methyl-propyl)-phenol]
[4]
  solubility in water and aqueous media: high solubility

## CC[C@@H](c1cccc(O)c1)[C@@H](C)CN(C)C.O=C(O)c1cccnc1 [Example b2-1c, Salt or Cocrystal of Tapentadol and Nicotinic Acid]
[1]; 29.76-135.97° C.
  TG weight change: −0.19%
[1]; range: 25 to 148° C.
  weight loss (TGA): < 0.3%

## CC[C@@H](c1cccc(O)c1)[C@@H](C)CN(C)C.CC[C@@H](c1cccc(O)c1)[C@@H](C)CN(C)C.O=C(O)/C=C/C(=O)O [Example I-1, Hemi Salt or Hemi Cocrystal of Fumaric Acid and Tapentadol]
[1]
  TGA no weight loss up to: to 131 °C
[1]; listed as I-2
  TGA no weight loss up to: to 130 °C
[1]; listed as I-3
  TGA no weight loss up to: to 130 °C

## CC[C@@H](c1cccc(O)c1)[C@@H](C)CN(C)C.O=C(O)c1ccc2ccccc2c1O [Example C-1, Salt or Cocrystal of 1-hydroxy-2-naphthoic Acid and Tapentadol]
[1]
  TGA no weight loss up to: to 125 °C
[1]; listed as C-2
  TGA no weight loss up to: to 130 °C

## CC[C@@H](c1cccc(O)c1)[C@@H](C)CN(C)C.O=C(O)c1cccnc1 [Example G-2, Salt or Cocrystal of Nicotinic Acid and Tapentadol]
[1]
  TGA no weight loss up to: to 135 °C
[1]; listed as G-3
  TGA no weight loss up to: to 150 °C

## CC[C@@H](c1cccc(O)c1)[C@@H](C)CN(C)C.CC[C@@H](c1cccc(O)c1)[C@@H](C)CN(C)C.O=C(O[C@H](C(=O)O)[C@H](OC(=O)c1ccccc1)C(=O)O)c1ccccc1 [Example A-1, Hemi Salt or Hemi Cocrystal of (2S,3S)-Di-benzoyl Tartaric Acid and Tapentadol]
[1]
  TGA no weight loss up to: to 140 °C
[1]; listed as A-2
  TGA no weight loss up to: to 160 °C
[1]; listed as A-3
  TGA no weight loss up to: to 160 °C

## Salt or Cocrystal of Tapentadol and Embonic Acid [b1-4-3]
[1]; range 31 to 171° C.
  weight loss (TGA): < 0.1%

## Salt or Cocrystal of Nitric Acid and Tapentadol [Example H-1]
[1]
  TGA no weight loss up to: to 170 °C

## Salt or Cocrystal of Embonic Acid and Tapentadol [Example D-1]
[1]; 90° C.-157° C.
  TGA weight loss: −7.1%

## CC[C@@H](c1cccc(O)c1)[C@@H](C)CN(C)C.O=C(O)c1cccnc1 [Example G-1, Salt or Cocrystal of Nicotinic Acid and Tapentadol]
[1]; 28° C.-171° C.
  TGA weight loss: −6.4%

## CCC(c1cccc(O)c1)C(C)CN(C)C.O=C1NS(=O)(=O)c2ccccc21 (centres unmarked) [Example J-1, Salt or Cocrystal of Saccharin and Tapentadol]
[1]
  TGA no weight loss up to: to 105 °C

## Salt or Cocrystal of Embonic Acid and Tapentadol [Example D-2]
[1]
  TGA no weight loss up to: to 170 °C
[1]; listed as D-3
  TGA no weight loss up to: to 160 °C

## CC[C@@H](c1cccc(O)c1)[C@@H](C)CN(C)C.O=C(O)CCCCCCCCC(=O)O [Example B-1, Salt or Cocrystal of Sebacid Acid and Tapentadol]
[1]
  TGA no weight loss up to: to 140 °C
[1]; listed as B-2
  TGA no weight loss up to: to 105 °C
[1]; listed as B-3
  TGA no weight loss up to: to 145 °C

## Salt or Cocrystal of Tapentadol and Embonic Acid [b1-4-4]
[1]; range 53 to 167° C.
  weight loss (TGA): −5.7%
